Data as given in article PMC9718554, “Discovery of a fragment hit compound targeting D-Ala:D-Ala ligase of bacterial peptidoglycan biosynthesis” (Journal of Enzyme Inhibition and Medicinal Chemistry, 2022).
Read-outs that look alike come from different tables or passages of the source.

Molecular target: T1, E. coli DdlB enzyme (D-alanine:D-alanine ligase) (Escherichia coli, UniProt P07862)
T1 construct: made in house; host or cells: E. coli
Assay: biochemical
Conditions: for remaining activity at 2100 µM: tested concentration 2.1 mM; for remaining activity at 2000 µM: tested concentration 2.0 mM; for remaining activity at 1800 µM: tested concentration 1.8 mM; for remaining activity at 2300 µM: tested concentration 2.3 mM; for remaining activity at 1900 µM: tested concentration 1.9 mM; for remaining activity at 1700 µM: tested concentration 1.7 mM; for remaining activity at 2200 µM: tested concentration 2.2 mM; for remaining activity at 2700 µM: tested concentration 2.7 mM; for remaining activity at 2400 µM: tested concentration 2.4 mM; for remaining activity at 2600 µM: tested concentration 2.6 mM

[1] = residual activity, read-out: DdlB RA
[2] = residual activity of DdlB, fragment library screening, tested concentration 2.5 mM, read-out: DdlB RA
[3] = residual activity of DdlB, fragment library screening, read-out: DdlB RA
[4] = fragment library screening, read-out: DdlB RA

CCn1cnnc1CC1CCCN(C(=O)c2ccco2)C1 (centres unmarked) [Compound T501-0329]
remaining activity at 2100 µM [1]: 69%

COc1ccccc1Nc1ncccc1C(=O)O [Compound 8019-5848]
remaining activity at 2000 µM [1]: 99%

CC(=O)CC1(O)C(=O)Nc2ccc(Br)cc21 (centres unmarked) [Compound 5897-0084]
remaining activity at 1800 µM [1]: 96%

O=C(O)c1cnc(-c2ccc(F)cc2)[nH]c1=O [Compound 8020-2279]
remaining activity at 2100 µM [1]: 94%

O=C1C(O)C2(CCCCC2)N1C1CCNCC1 (centres unmarked) [Compound T965-0058]
remaining activity at 2100 µM [1]: 90%

CCn1cc(Br)c(C(=O)O)n1 [Compound Y501-6363]
remaining activity at 2300 µM [1]: 90%

Cc1c(N)c(=O)n(-c2ccccc2)n1C [Compound 1254-0226]
remaining activity at 2500 µM (tested concentration 2.5 mM, read-out: DdlB RA): 95%

CCS(=O)(=O)N1CCC2(CCC2OC)CC1 (centres unmarked) [Compound S664-0247]
remaining activity at 2000 µM (read-out: DdlB RA): 92%

Cc1nnc(N)s1 [FLD150]
remaining activity at 2500 µM [2]: 95%

Nc1ncnc2[nH]ccc12 [FLD144]
remaining activity at 2500 µM [2]: 94%

OB1OCc2ccccc21 [Compound 8008-5589]
remaining activity at 3700 µM (tested concentration 3.7 mM, read-out: DdlB RA): 85%

Cc1nn(C(F)F)cc1S(=O)(=O)N1CCC(C)CC1 [Compound Y501-4822]
remaining activity at 1900 µM [1]: 97%

COCc1cn(C2CNC2)nn1 [Compound S727-0003]
remaining activity at 2900 µM (residual activity of DdlB, fragment library screening, tested concentration 2.9 mM, read-out: DdlB RA): 7.54%

O=C(Cc1nc(-c2ccccn2)n[nH]1)NCC1CCCO1 (centres unmarked) [Compound 8020-1329F]
remaining activity at 1700 µM [1]: 104%

CC(C)CN1CC(O)CN(C(=O)C2CCC2)CC1=O (centres unmarked) [SA85-1056]
remaining activity at 2200 µM [1]: 97%

Cc1nn(C(C)C(=O)O)cc1Cl (centres unmarked) [FF01-4477]
remaining activity at 2700 µM [3]: 89%

CC(O)c1ccccc1 (centres unmarked) [FLD168]
remaining activity at 2500 µM [2]: 98%

COc1ccccc1Cc1noc([C@H]2CCCN2)n1 [FF20-0278]
remaining activity at 1900 µM (read-out: DdlB RA): 87%

Cc1ccc(C#N)c(O)n1 [FLD051]
remaining activity at 2500 µM [2]: 97%

NC(=O)NCC(=O)N[C@H](Cc1c[nH]cn1)C(=O)O [Compound 8012-0410]
remaining activity at 2000 µM [4]: 91%

N#Cc1oc2ccccc2c1N [Compound 8019-4478]
remaining activity at 3500 µM (residual activity of DdlB, fragment library screening, tested concentration 3.5 mM, read-out: DdlB RA): 85%

CC1=CC(C)(C)N(C)c2cc(O)ccc21 [Compound Y021-0895]
remaining activity at 2700 µM (read-out: DdlB RA): 88%

NC(=O)N[C@@H](Cc1ccccc1)C(=O)O [Compound 8011-7026]
remaining activity at 2400 µM (read-out: DdlB RA): 93%

O=C(O)Cc1ccncc1 [FLD055]
remaining activity at 2500 µM [2]: 96%

COC(=O)c1ccccc1C(=O)O [FLD006]
remaining activity at 2500 µM [2]: 89%

Oc1cccc(C(F)(F)F)c1 [FLD173]
remaining activity at 2500 µM [2]: 91%

CCOC(=O)c1cn[nH]c1O [Compound C201-1623]
remaining activity at 3200 µM (read-out: DdlB RA): 101%

Clc1ncnc2[nH]ccc12 [FLD154]
remaining activity at 2500 µM [2]: 95%

O=C1CNC(=O)N1 [FLD041]
remaining activity at 2500 µM [2]: 95%

COC(=O)CCC(=O)Nc1ccc(S(N)(=O)=O)cc1 [Compound 1699-0796]
remaining activity at 1700 µM (read-out: DdlB RA): 89%

Nc1csc2nccnc12 [FLD078]
remaining activity at 2500 µM [2]: 100%

COc1cccc(F)c1B(O)O [Compound 8020-2294]
remaining activity at 2900 µM (read-out: DdlB RA): 97%

O=C(O)Cn1nnc(-c2cccc(-n3cccn3)c2)n1 [Compound 8020-8838]
remaining activity at 1900 µM [4]: 92%

Cn1cnc2c(c1=O)CCC(N)CC2 (centres unmarked) [FF20-0287]
remaining activity at 3100 µM (tested concentration 3.1 mM, read-out: DdlB RA): 91%

O=[N+]([O-])c1cc(CN2CCCC2)c2cccnc2c1O [Compound 8010-2705]
remaining activity at 1800 µM [1]: 57%

O=C(O)c1cnn(-c2ccccn2)c1 [Compound 8018-8592]
remaining activity at 2700 µM (read-out: DdlB RA): 94%

CC1Cc2ccc(CN)cc2N1C(=O)c1ccccc1 (centres unmarked) [FF01-3167]
remaining activity at 2300 µM [1]: 51%

O=C(O)c1ccnc(N2CCOCC2)c1 [Compound Y043-8163]
remaining activity at 2400 µM (read-out: DdlB RA): 89%

O=C(c1n[nH]c2ccccc12)N1C[C@H]2CCC[C@@H](O)[C@H]2C1 [Compound S890-0272]
remaining activity at 1800 µM [1]: 95%

CC1(C)CC(=O)CC(C)(C)N1OC(=O)c1ccccn1 [Compound 8012-5220]
remaining activity at 2200 µM [1]: 97%

OB(O)c1ccc(OCc2ccccc2)c(F)c1 [Compound 1222-0119]
remaining activity at 2000 µM (read-out: DdlB RA): 98%

CCNc1cc(N2CCC(CCC(=O)O)CC2)ncn1 [Compound P207-8919]
remaining activity at 1800 µM [4]: 83%

Cc1c(S(=O)(=O)NC2CCCCCC2)cnn1C [Compound Y502-6613]
remaining activity at 1800 µM [1]: 94%

O=S(=O)(c1ccccc1)N1CCN2CCCC2C1 (centres unmarked) [Compound Y206-5298]
remaining activity at 2300 µM [1]: 92%

CCOc1c(Nc2ccc(F)cc2)c(=O)c1=O [Compound G317-0061]
remaining activity at 2100 µM (read-out: DdlB RA): 96%

CC1=CC(C)(C)Nc2c(C(=O)O)cccc21 [Compound Y021-0768]
remaining activity at 2300 µM [1]: 105%

CNS(=O)(=O)c1ccc2c(c1)CCN2C(C)=O [Compound Y300-1529]
remaining activity at 2400 µM (read-out: DdlB RA): 90%

COC(C(=O)NC1CC1)c1ccccc1 (centres unmarked) [Compound 8010-8989]
remaining activity at 2400 µM (read-out: DdlB RA): 94%

Cc1c(C(=O)O)nnn1-c1ccc2c(c1)CCC2 [Compound T640-0079]
remaining activity at 2100 µM (read-out: DdlB RA): 92%

CC(C)c1cccc(O)c1 [FLD176]
remaining activity at 2500 µM [2]: 95%

Cc1ccc(-c2ccnc3c(C(=O)O)cnn23)cc1 [Compound 10, 7-(p-Tolyl)pyrazolo[1,5-a]pyrimidine-3-carboxylic acid]
remaining activity at 500 µM (at 0.5 mM, read-out: DdlB inhibition, RA (Residual Activity)): 101%

Oc1cc(-c2ccco2)n[nH]1 [Compound Y503-3143]
remaining activity at 3300 µM (tested concentration 3.3 mM, read-out: DdlB RA): 98%

Cc1ccc(C(=N)N)cc1 [FLD025]
remaining activity at 2500 µM [2]: 100%

NCCc1noc(C2CC2)n1 [Compound S399-0482]
remaining activity at 2600 µM [3]: 95%

O=C(O)c1cc2nccc(-c3ccccc3)n2n1 [Compound 19, 7-Phenylpyrazolo[1,5-a]pyrimidine-2-carboxylic acid]
remaining activity at 1500 µM (at 1.5 mM, read-out: DdlB inhibition, RA (Residual Activity)): 90%
remaining activity at 5000 µM (at 5 mM, read-out: DdlB inhibition, RA (Residual Activity)): 50%

O=C(O)c1cc(-c2cccnc2)nc2ccccc12 [Compound Y042-7719]
remaining activity at 2000 µM [4]: 85%

O=C1CC(c2cccc(O)c2)c2snc(C(=O)O)c2N1 (centres unmarked) [Compound 8020-5288]
remaining activity at 1700 µM [1]: 114%

CCN1CCOC(=O)C1CC(=O)Nc1ccc(F)cc1 (centres unmarked) [Compound 8563-1154]
remaining activity at 2000 µM [1]: 88%

O=C(O)c1cccnc1F [FLD134]
remaining activity at 2500 µM [2]: 98%

NS(=O)(=O)c1cccc2cccnc12 [Compound R005-0042]
remaining activity at 2400 µM (read-out: DdlB RA): 88%

N[C@H](c1ccccc1)[C@@H](N)c1ccccc1 [FLD112]
remaining activity at 2500 µM (read-out: DdlB RA): 100%

Cc1nc(N2CCC(C(=O)O)CC2)cc(C(F)(F)F)n1 [Compound S553-0322]
remaining activity at 1700 µM (read-out: DdlB RA): 105%

Nc1cccc(N)c1 [FLD111]
remaining activity at 2500 µM [2]: 92%

Cc1ccc(N)c(O)c1 [FLD023]
remaining activity at 2500 µM (read-out: DdlB RA): 100%

Oc1nonc1NCc1ccccc1 [Compound 8018-6481]
remaining activity at 2600 µM (read-out: DdlB RA): 102%

CCOc1ccc2c(n1)CCN(C(=O)C1CC1)C2 [Compound S422-0032]
remaining activity at 2000 µM (read-out: DdlB RA): 97%

COc1ccc(B(O)O)cc1F [Compound 1222-0120]
remaining activity at 2900 µM (tested concentration 2.9 mM, read-out: DdlB RA): 93%

OCc1cccs1 [FLD200]
remaining activity at 2500 µM [2]: 95%

Cc1ccc(C(=O)N(C)CC2(C)CCOCC2)cn1 [Compound P970-1095]
remaining activity at 2300 µM [1]: 94%

O=C(O)c1ccc(-c2cnco2)cc1 [FLD026]
remaining activity at 2500 µM [2]: 87%

CNC(=O)CCN1C(=O)CSC1c1ccccc1Cl (centres unmarked) [Compound V026-8598]
remaining activity at 1700 µM (read-out: DdlB RA): 109%

Cc1ccnc(N)c1 [FLD087]
remaining activity at 2500 µM [2]: 100%

CCn1nccc1C(=O)N1CC(n2ccnc2C)C1 [Compound S695-2086]
remaining activity at 1900 µM (read-out: DdlB RA): 95%

CCN(CC)S(=O)(=O)c1ncn[nH]1 [Compound 8008-1932]
remaining activity at 2400 µM (read-out: DdlB RA): 93%

Cc1ccc(CC2CC(=O)N(c3ccncc3)C2=O)cc1 (centres unmarked) [Compound 6903-0015]
remaining activity at 2000 µM [1]: 84%

CCS(=O)(=O)N1CCCC1c1ccc(C)cc1 (centres unmarked) [Compound D399-0123]
remaining activity at 2400 µM (read-out: DdlB RA): 89%

O=C(Nc1ccccc1)Nc1ccc2[nH]c(=O)oc2c1 [Compound G434-0096]
remaining activity at 1900 µM (read-out: DdlB RA): 75%

Cn1c(=O)cnc2ccc(N3CCCCCC3)nc21 [Compound Z601-8402]
remaining activity at 2300 µM (read-out: DdlB RA): 83%

CCS(=O)(=O)N1CCCC1c1ccccc1F (centres unmarked) [Compound D399-0515]
remaining activity at 2300 µM (read-out: DdlB RA): 95%

CCCc1nnc(-c2ccncc2)o1 [Compound Z632-7367]
remaining activity at 2600 µM (read-out: DdlB RA): 94%

O=C(c1ccco1)N1CCCCC1c1nnc(C2CC2)[nH]1 (centres unmarked) [Compound M754-1192]
remaining activity at 1700 µM [1]: 90%

CC1CN(C)C(C)CC1n1nc(O)cc1N (centres unmarked) [Compound D068-0221]
remaining activity at 2200 µM (read-out: DdlB RA): 101%

O=S(=O)(O)c1nnc(-c2ccccc2)o1 [Compound 8018-8658]
remaining activity at 2200 µM (read-out: DdlB RA): 98%

Brc1ccc(-c2nc[nH]n2)cc1 [Compound 8020-5438]
remaining activity at 2200 µM [1]: 88%

Cc1nc2nc(S(N)(=O)=O)nn2c(C)c1C [Compound 8009-4322]
remaining activity at 2100 µM (read-out: DdlB RA): 97%
